Experiments:
Format in all cases: cell-based
human TLR2 = target: T1, human TLR2 (Homo sapiens, UniProt O60603); experiment: NF-κB-driven SEAP reporter assay in TLR-transfected HEK293 cells
T1 construct: host or cells: HEK293
Procedure: (§1) PeptideX2 (200 μg/mL) was tested for its effects on human TLR-driven NF-κB activation in HEK293 cell lines transfected with human TLR2, 3, 4, 5, 7, 8 or 9 (InvivoGen, San Diego, Calif.). HEK293 cells (50,000 to 75,000 cells/well) expressing the indicated TLR were plated in wells of a 96-well plate (200 μl total volume) containing either with no additions, PeptideX2 (in 20 μl buffer), or buffer only (20 μl) as a vehicle control. All cells contained a reporter construct having coding sequence for Secreted Embryonic Alkaline Phosphatase (SEAP) under the control of a promoter inducible by the transcription of NF-κB, and were incubated in media containing a detectable SEAP expression indicator (InvivoGen, San Diego, Calif.). After 16-20 hours incubation at 37° C., the optical density of culture supernatants was read at 650 nm on a Molecular Devices SpectraMax™ 340PC absorbance detector.
(§2) The relative potency of PeptideX2 induction of human TLR-mediated NF-κB activation was compared to the effects of known PAMP ligands that have activity as agonists for each of the human TLRs TLR2, TLR3, TLR4, TLR5, TLR7, TLR8 and TLR9, using the NF-κB-driven SEAP reporter assay (InvivoGen, San Diego, Calif.). The known TLR agonists were as follows: for TLR2, heat killed Listeria monocytogenes (HKLM) at 10^8 cells/ml; for TLR3, poly(I:C) at 1 ug/ml; for TLR4, E. coli K12 LPS at 100 ng/ml; for TLR5, S. typhimurium flagellin at 100 ng/ml; for TLR7, CL097 at 1 ug/ml; for TLR8, CL075 at 1 ug/ml; for TLR9, CpG ODN 2006 at 100 ng/ml.

human TLR4 = target: T2, human TLR4 (Homo sapiens, UniProt O00206); experiment: as above; conditions: PeptideX2 200 μg/mL, 16-20 hours
T2 construct: host or cells: HEK293
Procedure: as §1, §2

[1] = system: human peripheral blood white cells (WBC); experiment: TNFα production by WBC during short-term incubation with S. aureus (ELISA); conditions: for TNFα concentration: 3-hour culture
Procedure: Staphylococcus aureus bacteria were incubated with human peripheral blood white cells (WBC) in the absence or presence of PeptideX2 (0, 10, and 100 μg/ml), and the effects on S. aureus growth were assessed by serial dilutions, microbiological plating and determination by counting colony forming units (CFU) in culture samples withdrawn after incubation times of 0, 1.5 and 3 hours. The WBC-to-Staph ratio was 100:1, using WBC at 4×10^6/ml and Staph 4×10^4 CFU/ml. Supernatant fluids from the same experimental cultures were also tested for TNFα production by WBC during the short-term incubations with S. aureus. […] In this three-hour timeframe, however, the presence of PeptideX2 at these concentrations had no effect on WBC bacteriocidal activity against S. aureus.

Staphylococcus aureus = experiment: S. aureus growth (CFU) with human peripheral blood white cells
Procedure: Staphylococcus aureus bacteria were incubated with human peripheral blood white cells (WBC) in the absence or presence of PeptideX2 (0, 10, and 100 μg/ml), and the effects on S. aureus growth were assessed by serial dilutions, microbiological plating and determination by counting colony forming units (CFU) in culture samples withdrawn after incubation times of 0, 1.5 and 3 hours. The WBC-to-Staph ratio was 100:1, using WBC at 4×10^6/ml and Staph 4×10^4 CFU/ml.

peripheral blood cells = experiment: Cytokine production by human peripheral blood cells (MSD panel)
Procedure: In order to examine the biological activity of IgX, cytokine production from human peripheral whole blood samples incubated with IgX was measured. Peripheral whole blood samples from three different donors (#66, 67, and 85) were obtained with appropriate informed consent and incubated with concentrations of IgX ranging from 0 to 200 ug/ml.
Protein A purified IgX was prepared from placental sample BC, brought to 0.05 M phosphate, 0.15 M NaCl buffer, pH 7.4, treated with an endotoxin affinity column (ActiClean Etox™ from Sterogene, Carlsbad, Calif.) according to the supplier's instructions, and then sent to IBT Bioservices (Gaithersburg, Md.) for human peripheral blood testing. […] All peripheral blood cells were suspended in RPMI-1640 media. Various concentrations of IgX were incubated with peripheral blood cells from donor D66 for 18 hours, and then the samples were stimulated with 1 ug/ml of PHA, 50 ng/ml of LPS, or 10 ng/ml of IFNγ (200 U/ml) for four hours. Samples of culture supernatant fluids were tested in duplicate for the presence of IL-2, IL-4, IL-6, IL-10, IL-12, and TNFα using a Meso Scale Discovery (MSD, Gaithersburg, Md.) panel.
PeptideX1 and PeptideX2 were incubated with peripheral blood cells from donor D67 as described above and tested in duplicate for IL-6 activity. […]

E. coli = E. coli growth (CFU) with human peripheral blood leukocytes; conditions: E. coli with WBCs with PeptideX2, 10 hours
Procedure: Human peripheral blood leukocytes (WBCs) were obtained from healthy donors with informed consent. Three test groups were inoculated with E. coli and incubated for 10 hours. The three groups were E. coli with serum alone, E. coli with WBCs, and E. coli with WBCs with PeptideX2. Samples were taken at 0, 2, 4, 6 and 10 hours and plated for colony forming units (CFUs). […] In a separate but similar experiment, nine test groups (E. coli with serum alone, E. coli with WBCs, and E. coli with WBCs with PeptideX2 at each of seven indicated concentrations, see FIG. 12) were incubated over a time course of three hours, with quantification of bacterial CFU performed at times 0, 1.5 and 3 hours (FIG. 12).

murine TLR4 = target: T3, murine TLR4 (Mus musculus, UniProt Q9QUK6); experiment: NF-κB-driven SEAP reporter assay in TLR-transfected HEK293 cells; conditions: PeptideX2 200 μg/mL
T3 construct: host or cells: HEK293
T3 sequence (Q9QUK6 26-835): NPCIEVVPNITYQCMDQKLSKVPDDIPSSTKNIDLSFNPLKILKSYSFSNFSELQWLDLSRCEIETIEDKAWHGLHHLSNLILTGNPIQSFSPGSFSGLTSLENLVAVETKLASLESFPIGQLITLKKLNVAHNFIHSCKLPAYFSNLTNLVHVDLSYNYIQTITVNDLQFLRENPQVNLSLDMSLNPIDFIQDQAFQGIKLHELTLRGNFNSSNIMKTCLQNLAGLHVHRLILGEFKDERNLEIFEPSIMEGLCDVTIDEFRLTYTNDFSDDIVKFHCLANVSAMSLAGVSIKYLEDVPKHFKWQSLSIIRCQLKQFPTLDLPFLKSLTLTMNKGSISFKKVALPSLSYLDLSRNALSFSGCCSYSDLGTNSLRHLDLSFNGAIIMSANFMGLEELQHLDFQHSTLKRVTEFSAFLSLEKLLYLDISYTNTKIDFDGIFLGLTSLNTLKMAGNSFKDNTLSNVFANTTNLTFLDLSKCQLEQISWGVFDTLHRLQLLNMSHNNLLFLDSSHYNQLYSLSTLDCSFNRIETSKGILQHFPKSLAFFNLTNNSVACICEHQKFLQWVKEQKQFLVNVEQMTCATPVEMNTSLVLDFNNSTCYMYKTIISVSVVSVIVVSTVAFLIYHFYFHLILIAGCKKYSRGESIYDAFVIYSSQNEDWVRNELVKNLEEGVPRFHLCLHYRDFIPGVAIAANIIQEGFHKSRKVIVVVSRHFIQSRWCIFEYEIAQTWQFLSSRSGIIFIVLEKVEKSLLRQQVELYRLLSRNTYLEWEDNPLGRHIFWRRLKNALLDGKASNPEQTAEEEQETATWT
T3 sequence (Q9JHF9 19-160 partner): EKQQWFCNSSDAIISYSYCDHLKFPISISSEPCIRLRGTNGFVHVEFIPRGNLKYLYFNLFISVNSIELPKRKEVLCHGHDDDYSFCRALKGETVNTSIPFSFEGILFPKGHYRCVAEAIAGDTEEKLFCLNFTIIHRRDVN
Procedure: as §1
(§3) PeptideX2 (200 μg/mL) was also tested for its effects on murine TLR-driven NE-κB activation in HEK293 cell lines transfected with murine TLR2, 3, 4, 5, 7, 8 or 9 (InvivoGen, San Diego, Calif.) essentially as described above.

murine TLR2 = target: T4, murine TLR2 (Mus musculus, UniProt Q9QUN7); experiment: as above; conditions: PeptideX2 200 μg/mL
T4 construct: host or cells: HEK293
Procedure: as §1, §3

[2] = system: murine TLR3, 5, 7, 8 or 9; experiment: as above; conditions: PeptideX2 200 μg/mL
Procedure: as §1, §3

T1 sequence (O60603 21-784): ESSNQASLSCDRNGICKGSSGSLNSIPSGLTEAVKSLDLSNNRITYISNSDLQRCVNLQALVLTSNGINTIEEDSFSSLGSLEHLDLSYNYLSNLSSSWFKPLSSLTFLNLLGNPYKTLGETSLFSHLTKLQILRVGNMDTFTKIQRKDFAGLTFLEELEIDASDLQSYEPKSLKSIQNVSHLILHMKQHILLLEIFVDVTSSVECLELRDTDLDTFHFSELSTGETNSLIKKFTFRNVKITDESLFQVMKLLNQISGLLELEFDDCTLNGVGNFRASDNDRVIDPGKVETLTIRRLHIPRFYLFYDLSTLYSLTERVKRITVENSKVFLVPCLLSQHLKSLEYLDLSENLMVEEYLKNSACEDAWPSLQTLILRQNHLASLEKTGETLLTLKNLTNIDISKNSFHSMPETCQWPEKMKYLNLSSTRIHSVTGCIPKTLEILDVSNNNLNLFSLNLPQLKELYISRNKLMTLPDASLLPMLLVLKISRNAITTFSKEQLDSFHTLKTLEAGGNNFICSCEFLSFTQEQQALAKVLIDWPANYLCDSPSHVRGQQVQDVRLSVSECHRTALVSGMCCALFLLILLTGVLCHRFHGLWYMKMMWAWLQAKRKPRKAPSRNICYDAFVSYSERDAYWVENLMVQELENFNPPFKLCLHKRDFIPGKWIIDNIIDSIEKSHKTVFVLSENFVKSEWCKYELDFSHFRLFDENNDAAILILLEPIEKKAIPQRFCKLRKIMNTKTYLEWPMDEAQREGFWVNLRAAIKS
T2 sequence (O00206 24-839): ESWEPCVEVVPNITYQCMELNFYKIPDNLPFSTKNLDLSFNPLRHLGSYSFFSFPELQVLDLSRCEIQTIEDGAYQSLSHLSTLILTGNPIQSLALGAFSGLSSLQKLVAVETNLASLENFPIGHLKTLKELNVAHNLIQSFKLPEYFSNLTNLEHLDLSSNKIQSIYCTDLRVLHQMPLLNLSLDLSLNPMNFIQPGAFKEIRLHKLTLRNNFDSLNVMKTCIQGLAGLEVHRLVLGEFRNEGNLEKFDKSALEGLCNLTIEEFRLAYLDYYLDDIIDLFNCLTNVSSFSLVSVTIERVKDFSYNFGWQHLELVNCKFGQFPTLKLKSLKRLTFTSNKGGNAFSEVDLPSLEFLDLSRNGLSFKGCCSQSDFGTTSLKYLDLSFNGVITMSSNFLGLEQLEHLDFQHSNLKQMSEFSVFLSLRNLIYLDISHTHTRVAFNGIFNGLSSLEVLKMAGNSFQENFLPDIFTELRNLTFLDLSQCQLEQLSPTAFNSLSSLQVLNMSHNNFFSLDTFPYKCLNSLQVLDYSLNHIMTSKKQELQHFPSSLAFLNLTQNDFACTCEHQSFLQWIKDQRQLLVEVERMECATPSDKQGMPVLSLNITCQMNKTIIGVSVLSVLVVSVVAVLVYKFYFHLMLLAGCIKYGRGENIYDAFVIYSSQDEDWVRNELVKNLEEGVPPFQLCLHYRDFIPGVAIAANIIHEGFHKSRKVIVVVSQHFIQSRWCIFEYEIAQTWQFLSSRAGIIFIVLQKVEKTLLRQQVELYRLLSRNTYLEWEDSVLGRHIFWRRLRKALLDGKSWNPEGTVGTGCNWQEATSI
T2 sequence (Q9Y6Y9 17-160 partner limits assumed): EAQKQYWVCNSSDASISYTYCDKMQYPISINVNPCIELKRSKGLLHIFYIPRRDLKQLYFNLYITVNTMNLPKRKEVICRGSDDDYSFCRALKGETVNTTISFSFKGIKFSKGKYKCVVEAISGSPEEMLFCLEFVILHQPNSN
T4 sequence (Q9QUN7 25-784): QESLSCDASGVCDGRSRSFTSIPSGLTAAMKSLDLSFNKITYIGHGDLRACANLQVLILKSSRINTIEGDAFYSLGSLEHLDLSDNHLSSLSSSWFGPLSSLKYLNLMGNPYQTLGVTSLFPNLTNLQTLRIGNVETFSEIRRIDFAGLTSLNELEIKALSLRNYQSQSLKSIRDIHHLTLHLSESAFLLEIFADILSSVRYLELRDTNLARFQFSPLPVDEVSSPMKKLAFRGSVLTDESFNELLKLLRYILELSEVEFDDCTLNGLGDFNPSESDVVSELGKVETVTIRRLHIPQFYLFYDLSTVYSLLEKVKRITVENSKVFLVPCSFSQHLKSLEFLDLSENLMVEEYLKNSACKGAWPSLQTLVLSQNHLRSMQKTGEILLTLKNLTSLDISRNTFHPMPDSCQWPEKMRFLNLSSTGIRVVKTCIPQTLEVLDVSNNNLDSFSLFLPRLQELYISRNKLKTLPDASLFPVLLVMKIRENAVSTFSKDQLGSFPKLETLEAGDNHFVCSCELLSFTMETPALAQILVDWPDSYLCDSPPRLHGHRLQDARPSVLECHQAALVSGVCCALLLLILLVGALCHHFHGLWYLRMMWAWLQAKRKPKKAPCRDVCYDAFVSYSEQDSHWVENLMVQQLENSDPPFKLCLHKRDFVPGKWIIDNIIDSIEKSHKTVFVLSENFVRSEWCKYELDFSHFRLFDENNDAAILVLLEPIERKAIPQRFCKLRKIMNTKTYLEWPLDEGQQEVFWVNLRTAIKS

KSIAYLQMNSLK (Peptide fragment) [PeptideX2, dodecapeptide derived from the heavy chain hypervariable region of IgX, residues 97-108 of AAH90938.1]
TLR2-mediated response as level of the response to HKLM (human TLR2; PeptideX2 200 μg/mL vs HKLM at 10^8 cells/ml): 14%
NF-κB activation via TLR2 (human TLR2; PeptideX2 200 μg/mL, 16-20 hours): activation of NF-κB via TLR2 and TLR4
NF-κB activation via TLR4 (human TLR4): activation of NF-κB via TLR2 and TLR4
reduction in TNFα production ([1]; 100 ug/ml PeptideX2, 3-hour timepoint): 65%
TNFα concentration ([1]; WBC plus PeptideX2 at 10 ug/ml): 160 pg/mL
TNFα concentration ([1]; WBC plus PeptideX2 at 100 ug/ml): 76 pg/mL
TNFα concentration ([1]; serum plus PeptideX2 at 100 ug/ml (no WBC)): 0.05 pg/mL
reduction in TNFα production ([1]; PeptideX2 at 10 ug/ml, 3-hour timepoint): 27%
effect on WBC bacteriocidal activity against S. aureus (Staphylococcus aureus; PeptideX2 10 and 100 ug/ml, three-hour timeframe): no effect
S. aureus growth (Staphylococcus aureus; WBC present, up to three hours, presence or absence of PeptideX2 (0, 10, 100 μg/ml)): no S. aureus growth was detected
IL-6 production (peripheral blood cells; cells from donor #67, compared to peptideX1): significantly greater IL-6 production compared to peptideX1
IL-6 production (peripheral blood cells; cells from donor #85, PeptideX2 0, 10, 100 or 200 ug/ml): enhanced production
E. coli CFUs (E. coli): rapid rise in CFUs
NF-κB-driven SEAP expression through murine TLR4 (murine TLR4): induction
potency via murine TLR4 relative to murine TLR2 (murine TLR4): greater potency in activating via murine TLR4 relative to murine TLR2
NF-κB-driven SEAP expression through murine TLR2 (murine TLR2): induction
NF-κB-driven SEAP expression through the other murine TLRs tested [2]: not through the other TLRs tested

Reference: US10365275B2, “Immunologically active polypeptide” (Institute of Arthritis Research, LLC, priority 2013, dated 2019)
